This is an account of results in patent US9777015B2, “Useful thiophene derivatives in the treatment of diabetes” (METABRAIN RESEARCH, priority 2012, dated 2017).

One experiment relates to INS-1 cells. As to the kind of experiment: Stimulation test of insulin secretion by INS-1 cells. It counts as cell-based. Particulars: Rattus norvegicus, 1 h incubation, 3.5 mM glucose; for activity at 10 µM: INS1, compound at 10 μM, read-out: INS-1 % of ctrl @ 10 μM; for activity at 50 µM: INS1, compound at 50 μM, read-out: INS-1 % of ctrl @ 50 μM. As to the method:
The different compounds were tested on an INS-1 beta-pancreatic line in order to evaluate their capability of potentializing the insulin secretion in response to glucose. Very briefly, the cells are cultivated in a culture medium, RPMI 1640 with 10 mM glucose containing 1 mM of sodium pyruvate, 50 μM of 2-mercaptoethanol, 2 mM of glutamine, 10 mM of HEPES, 100 IU/mL of penicillin, 100 μg/mL of streptomycin and 10% of inactivated fetal calf serum, as described by Asfari et al.. For the insulin secretion test, the INS-1 cells are sown and cultivated in 96-well plates. After 3 days of cultivation at 37° C. in a humid atmosphere (95% air/5% CO2), the medium is removed and the cells are incubated for 16 h in a medium containing 5 mM of glucose and 1% of inactivated fetal calf serum. On the day of the test, the cells are washed with a Krebs buffer (pH 7.4) containing 0.1% of bovine albumin and then pre-incubated for 30 min at 37° C. in this same buffer containing 2.8 mM of glucose. Finally, the cells are again washed with Krebs buffer and then incubated for 1 h in the buffer of the secretion test (Krebs, pH 7.4 containing 0.1% of bovine albumin and 3.5 mM of glucose and molecules to be evaluated). At the end of the test, the cell supernatant is recovered in order to measure therein the secreted insulin, by means of an ELISA kit using a rat anti-insulin antibody (ELISA Alpco Cat no. 80-INSRTH-E10). Each condition is tested in triplicate. The 3.5 mM glucose, the 10^−7M GLP-1 and the Forskoline 10^−7/IBMX 10^−5M mixtures are used as positive controls of the test. A compound stimulates the secretion of insulin if this factor is greater than or equal to 130% of the control for a given glucose dose.

Experiment [1] concerns hepatocytes isolated from Wistar rat liver. The experiment is described as follows: Test of inhibition of hepatic production of glucose (isolated hepatocytes, 3 h or 20 h incubation). It counts as cell-based. Particulars: for activity at 50 µM / activity at 100 µM: Rattus norvegicus, Hepatocyte, hepatic glucose production, rat hepatocytes; for activity at 50 µM: compound at 50 μM, read-out: HGP % of ctrl @ 50 μM; for activity at 100 µM: compound at 100 μM, read-out: HGP % of ctrl @ 100 μM. As to the method: The hepatocytes are isolated from Wistar rat liver having fasted for 24 h after perfusion of collagenase in the portal vein. The freshly isolated hepatocytes are sown in 6-well plates coated with collagen and containing an adhesion medium (Williams Medium). After adhesion, the medium is replaced with RPMI 1640 medium without any glucose, containing hydrocortisone (7.10^−5M) for a duration from 16 to 18 h. The next day, the glucose hepatic production test is conducted in a Krebs medium for 3 h. The basal conditions are cells incubated with only Krebs, the stimulated conditions are the cells placed in Krebs+lactate+pyruvate, the produced conditions are the cells exposed to chemical compounds in a Krebs/lactate/pyruvate medium. In the case when the compounds are dissolved in DMSO, all the conditions of the tests are met in the presence of a final concentration of 0.1% DMSO. The positive control of the test is the mercaptopicolinate known for its inhibitory action on hepatic production of glucose via the phosphoenolpyruvate carboxykinase. For short term treatments, the compounds are incubated for 3 h. For long term treatments, the compounds are incubated for 20 h at the moment when the hepatocytes are cultivated in RPMI and then added during the hepatic production test for 3 h. At the end of the 3 hours of incubation, the supernatant is recovered for measurement of glucose with a colorimetric method using glucose oxidase. The cells are lysed with a 0.1% NaOH aqueous solution in order to measure the amount of protein with the Lowry method. The results are expressed in mmols of glucose per mg of protein.

Structures can show the parent of a compound that is named as a salt. Where two headings read alike, the source gives them in different places.

For the compound `COC(=O)Cc1cc(C(=O)c2ccco2)sc1-c1ccccc1` [compound 3, methyl 2-(5-(furan-2-carbonyl)-2-phenylthiophen-3-yl)acetate], in the experiment with INS-1 cells, the activity at 10 µM is 152% and the activity at 50 µM turned out to be 318%. Further, in experiment [1] (3 h, 3 h incubation), the activity at 50 µM was 82% and the activity at 100 µM worked out at 74%.

As for `CCOC(=O)Cc1cc(C(=O)C2CCCCC2)sc1-c1ccc(Cl)cc1` [compound 14, ethyl 2-(2-(4-chlorophenyl)-5-(cyclohexanecarbonyl)thiophen-3-yl)acetate], in the experiment with INS-1 cells, the activity at 10 µM was determined as 152% and the activity at 50 µM is 165%. In addition, in experiment [1] (3 h, 3 h incubation), the activity at 50 µM is 91% and the activity at 100 µM was found to be 73%.

`CCOC(=O)Cc1cc(C(=O)c2ccccc2)sc1-c1ccc(Cl)cc1` [compound 15, ethyl 2-(5-benzoyl-2-(4-chloro-phenyl)thiophen-3-yl)acetate]: in the experiment on INS-1 cells, the activity at 10 µM was found to be 150% and the activity at 50 µM came out at 160%. Also, in experiment [1] (20 h, 20 h incubation), the activity at 50 µM amounted to 63% and the activity at 100 µM was 32%.

With `CCOC(=O)Cc1cc(C(=O)c2ccco2)sc1-c1ccc(OC)cc1` [compound 22, ethyl 2-(5-(furan-2-carbonyl)-2-(4-methoxyphenyl)thiophen-3-yl)acetate], in the experiment on INS-1 cells, the activity at 10 µM stood at 152% and the activity at 50 µM was 207%.

With `CCOC(=O)Cc1cc(C(=O)c2ccoc2)sc1-c1ccc(OC)cc1` [compound 28, ethyl 2-(5-(furan-3-carbonyl)-2-(4-methoxyphenyl)thiophen-3-yl)acetate], in the experiment on INS-1 cells, the activity at 10 µM was determined as 136% and the activity at 50 µM was 138%.

As for `CCOC(=O)Cc1cc(C(=O)c2cccc(OC)c2)sc1-c1ccc(OC)cc1` [compound 30, ethyl 2-(5-(3-methoxybenzoyl)-2-(4-methoxyphenyl)thiophen-3-yl)acetate], in the experiment with INS-1 cells, the activity at 10 µM is 157%.

Turning to `CCOC(=O)Cc1cc(C(=O)c2cscn2)sc1-c1ccc(OC)cc1` [compound 33, ethyl 2-(2-(4-methoxyphenyl)-5-(thiazole-4-carbonyl)thiophen-3-yl)acetate], in the experiment on INS-1 cells, the activity at 10 µM stood at 199% and the activity at 50 µM was found to be 280%.

As to `CCOC(=O)Cc1cc(C(=O)CCCCl)sc1-c1ccc(OC)cc1` [compound 37, ethyl 2-(5-(4-chlorobutanoyl)-2-(4-methoxyphenyl)thiophen-3-yl)acetate], in the experiment on INS-1 cells, the activity at 10 µM worked out at 157% and the activity at 50 µM was found to be 107%.

Regarding `CC(C)OC(=O)Cc1cc(C(=O)c2ccco2)sc1-c1ccc(Cl)c(Cl)c1` [compound 39, isopropyl 2-(2-(3,4-dichlorophenyl)-5-(furan-2-carbonyl)thiophen-3-yl)acetate], in the experiment on INS-1 cells, the activity at 10 µM stood at 143% and the activity at 50 µM was 389%.

In the case of `COc1ccc(-c2sc(C(=O)c3cccc(OC)c3)cc2CC(=O)OCC2O[C@H]3OC(C)(C)O[C@H]3[C@H]3OC(C)(C)O[C@@H]23)cc1` (stereo partly drawn) [compound 85, ((3aS,5aS,8aS,8bS)-2,2,7,7-tetramethyltetrahydro-3aH-bis([1,3]dioxolo)[4,5-b:4′,5′-d]pyran-5-yl)methyl 2-(5-(3-methoxy-benzoyl)-2-(4-methoxy-phenyl)thiophen-3-yl)acetate], in the experiment with INS-1 cells, the activity at 10 µM was found to be 146%.

Turning to `COc1ccc(C(=O)c2cc(CC(=O)NCCN(C)C)c(-c3ccc(Cl)cc3)s2)cc1` [compound 89, 2-(2-(4-chlorophenyl)-5-(4-methoxybenzoyl)thiophen-3-yl)-N-(2-(dimethylamino)ethyl)acetamide], the activity at 10 µM in the experiment on INS-1 cells stood at 171%.

As for `O=C(c1ccco1)c1cc(CC(=O)N2CCOCC2)c(-c2ccc(Cl)cc2)s1` [compound 91, 2-(2-(4-chlorophenyl)-5-(furan-2-carbonyl)thiophen-3-yl)-1-morpholino ethanone], in the experiment on INS-1 cells, the activity at 10 µM came out at 184% and the activity at 50 µM worked out at 152%.

For the compound `COc1ccc(C(=O)c2cc(CC(=O)N3CCN(C)CC3)c(-c3ccc(Cl)cc3)s2)cc1` [compound 93, 2-(2-(4-chlorophenyl)-5-(4-methoxybenzoyl)thiophen-3-yl)-1-(4-methylpiperazin-1-yl)ethanone], the activity at 10 µM in the experiment on INS-1 cells was determined as 149%.

For `CN(C)CCNC(=O)Cc1cc(C(=O)c2ccco2)sc1-c1ccc(Cl)cc1` [compound 95, 2-(2-(4-chlorophenyl)-5-(furan-2-carbonyl)thiophen-3-yl)-N-(2-(dimethylamino)ethyl)acetamide], in the experiment on INS-1 cells, the activity at 10 µM is 144% and the activity at 50 µM came out at 147%.

Turning to `COc1ccc(C(=O)c2cc(CC(=O)NCCO)c(-c3ccc(Cl)cc3)s2)cc1` [compound 96, 2-(2-(4-chlorophenyl)-5-(4-methoxybenzoyl)thiophen-3-yl)-N-(2-hydroxyethyl)acetamide], the activity at 10 µM in the experiment on INS-1 cells was 177%.

`CCOC(=O)Cc1cc(C(=O)N2CCOCC2)sc1-c1ccc(Cl)cc1` [compound 114, ethyl 2-(2-(4-chlorophenyl)-5-(morpholine-4-carbonyl)thiophen-3-yl)acetate]: the activity at 10 µM with INS-1 cells worked out at 150%.

Consider `COCC(C(=O)OC(C)C)c1cc(C(=O)c2ccc(OC)cc2)sc1-c1ccc(Cl)cc1` (stereo not shown) [compound 125], for which, in the experiment on INS-1 cells, the activity at 10 µM was 154% and the activity at 50 µM was determined as 126%.

In the case of `CCOC(=O)Cc1cc(C(=O)c2ccco2)sc1-c1ccc(C#N)cc1` [compound 139, ethyl 2-(2-(4-cyanophenyl)-5-(furan-2-carbonyl)thiophen-3-yl)acetate], in the experiment with INS-1 cells, the activity at 10 µM stood at 183% and the activity at 50 µM was found to be 247%.

Turning to `N#Cc1ccc(-c2sc(C(=O)c3ccco3)cc2CC(=O)O)cc1` [compound 140, 2-(2-(4-cyanophenyl)-5-(furan-2-carbonyl)thiophen-3-yl)acetic acid], in the experiment on INS-1 cells, the activity at 10 µM worked out at 123% and the activity at 50 µM worked out at 188%.

Consider `CN(C)CCNC(=O)Cc1cc(C(=O)c2ccco2)sc1-c1cccc(C#N)c1` [compound 142, 2-(2-(3-cyanophenyl)-5-(furan-2-carbonyl)thiophen-3-yl)-N-(2-(dimethylamino)ethyl)acetamide], for which, in the experiment with INS-1 cells, the activity at 10 µM came out at 117% and the activity at 50 µM was determined as 175%.

Regarding `N#CCc1cc(C(=O)c2ccco2)sc1-c1ccc(F)cc1` [compound 145, 2-(2-(4-fluorophenyl)-5-(furan-2-carbonyl)thiophen-3-yl)acetonitrile], in the experiment with INS-1 cells, the activity at 10 µM was 125% and the activity at 50 µM is 145%.

For the compound `COc1ccc(C(=O)c2cc(CC(=O)NC(=N)N)c(-c3ccc(Cl)cc3)s2)cc1.Cl` [compound 185, N-carbamimidoyl-2-(2-(4-chlorophenyl)-5-(4-methoxybenzoyl)thiophen-3-yl) acetamide hydrochloride], the “inhibition of hepatic production of glucose” value in experiment [1] (3 h incubation, with two doses) was “strongest inhibitions”. Moreover, in experiment [1] (3 h, 3 h incubation), the activity at 50 µM turned out to be 54% and the activity at 100 µM came out at 28%.

For the compound `N=C(N)NC(=O)Cc1cc(C(=O)c2ccco2)sc1-c1ccc(Cl)cc1` [compound 186, N-carbamimidoyl-2-[2-(4-chlorophenyl)-5-(furan-2-carbonyl)-3-thienyl]acetamide hydrochloride], in experiment [1] (3 h, 3 h incubation), the activity at 50 µM was 69% and the activity at 100 µM came out at 60%.

In the case of `C=C(C(=O)OCC)c1cc(C(=O)c2ccc(OC)cc2)sc1-c1ccc(Cl)cc1` [compound 187, ethyl 2-(2-(4-chlorophenyl)-5-(4-methoxybenzoyl)thiophen-3-yl)acrylate], in the experiment with INS-1 cells, the activity at 10 µM is 152% and the activity at 50 µM came to 120%.
